Measurements: US20050137252A1, “Production of dihydronepetalactone” (priority 2003, published 2005)

Tested on: Aedes aegypti mosquitoes
Assay: in vitro Gupta box landing assay (insect repellency)
Settings: 1% in IPA, 25 μl on Baudruche membrane over bovine blood at 37° C.; about 250 4-day-old female mosquitoes; probing recorded at 2 minute intervals over 20 minutes; mean of three replicates; compared with prior-art DHN materials
Protocol: The product of Example 1 is evaluated for insect repellency in a comparison test with DHN stereoisomers prepared according to prior-art methods, and against the major commercial insect repellent composition, DEET (N,N-diethyl-m-toluamide). As a control, neat iso-propanol (IPA) is employed as well. Repellency is determined against Aedes aegypti mosqutioes in the in vitro Gupta box landing assay. In this method a chamber contains 5 wells, each covered by a Baudruche (animal intestine) membrane. Each well is filled with bovine blood, containing sodium citrate (to prevent clotting) and ATP (72 mg ATP disodium salt per 26 ml of blood), and heated to 37° C. A volume of 25 μl of isopropyl alcohol (IPA) containing one test specimen or control is applied to each membrane. The concentrations are all 1% in IPA except where otherwise indicated. Controls are either neat IPA, an untreated membrane surface, or a membrane surface treated with a 1% solution of DEET. After 5 min, approximately 250 4-day-old female Aedes aegypti mosquitoes are introduced into the chamber. The number of mosquitoes probing the membranes for each treatment is recorded at 2 minute intervals over 20 minutes. Each datum represents the mean of three replicate experiments.

CC1COC(=O)C2C(C)CCC12 (single isomer, unassigned) [DHN Structure F]
repellent efficacy (mean number of landings over elapsed time, FIG. 3): compared well in repellent efficacy
